Measurements as given in publication PMC5741510 (Cell chemical biology, 2017).

Molecular target: dihydroorotate dehydrogenase (DHODH) (Escherichia coli, UniProt P0A7E1)
Experiment: continuous DCIP-reduction assay at […] nm, Lineweaver-Burk analysis
Format: biochemical

Chain of dihydroorotate dehydrogenase (DHODH) (P0A7E1 whole entry): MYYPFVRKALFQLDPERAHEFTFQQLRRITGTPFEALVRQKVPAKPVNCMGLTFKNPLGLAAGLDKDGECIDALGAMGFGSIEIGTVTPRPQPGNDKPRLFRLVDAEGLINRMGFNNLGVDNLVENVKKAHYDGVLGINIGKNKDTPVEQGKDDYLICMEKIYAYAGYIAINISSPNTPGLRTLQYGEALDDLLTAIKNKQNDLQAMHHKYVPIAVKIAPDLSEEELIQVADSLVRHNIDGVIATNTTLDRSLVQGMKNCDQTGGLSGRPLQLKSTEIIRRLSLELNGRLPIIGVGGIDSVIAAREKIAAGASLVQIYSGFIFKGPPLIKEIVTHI

CCCCCCCc1cc(=O)c2ccccc2n1O [HQNO, 2-heptyl-4(1H)-quinolone N-oxide]
Ki: 239 nM

CCCCCCC=CCc1nc2ccccc2c(O)c1C [HMNQ, 4-hydroxy-3-methyl-2-(2-nonenyl)-quinoline]
Ki: 51 nM
